Reference: ChEMBL document CHEMBL4007491, “Structure-based drug design of novel ASK1 inhibitors using an integrated lead optimization strategy” (Bioorg Med Chem Lett, 2017)
pIC50: −log10 of the molar value.

Legend:
[1] = Intrinsic clearance in human liver microsomes; format: ADME, microsome; details: read-out: CLH
[2] = target: T1, Mitogen-activated protein kinase kinase kinase 5 (Homo sapiens, UniProt Q99683); assay: Inhibition of ASK1 (unknown origin) using biotin-MBP as substrate after 20 mins by TR-FRET assay
T1 sequence (Q99683 whole entry): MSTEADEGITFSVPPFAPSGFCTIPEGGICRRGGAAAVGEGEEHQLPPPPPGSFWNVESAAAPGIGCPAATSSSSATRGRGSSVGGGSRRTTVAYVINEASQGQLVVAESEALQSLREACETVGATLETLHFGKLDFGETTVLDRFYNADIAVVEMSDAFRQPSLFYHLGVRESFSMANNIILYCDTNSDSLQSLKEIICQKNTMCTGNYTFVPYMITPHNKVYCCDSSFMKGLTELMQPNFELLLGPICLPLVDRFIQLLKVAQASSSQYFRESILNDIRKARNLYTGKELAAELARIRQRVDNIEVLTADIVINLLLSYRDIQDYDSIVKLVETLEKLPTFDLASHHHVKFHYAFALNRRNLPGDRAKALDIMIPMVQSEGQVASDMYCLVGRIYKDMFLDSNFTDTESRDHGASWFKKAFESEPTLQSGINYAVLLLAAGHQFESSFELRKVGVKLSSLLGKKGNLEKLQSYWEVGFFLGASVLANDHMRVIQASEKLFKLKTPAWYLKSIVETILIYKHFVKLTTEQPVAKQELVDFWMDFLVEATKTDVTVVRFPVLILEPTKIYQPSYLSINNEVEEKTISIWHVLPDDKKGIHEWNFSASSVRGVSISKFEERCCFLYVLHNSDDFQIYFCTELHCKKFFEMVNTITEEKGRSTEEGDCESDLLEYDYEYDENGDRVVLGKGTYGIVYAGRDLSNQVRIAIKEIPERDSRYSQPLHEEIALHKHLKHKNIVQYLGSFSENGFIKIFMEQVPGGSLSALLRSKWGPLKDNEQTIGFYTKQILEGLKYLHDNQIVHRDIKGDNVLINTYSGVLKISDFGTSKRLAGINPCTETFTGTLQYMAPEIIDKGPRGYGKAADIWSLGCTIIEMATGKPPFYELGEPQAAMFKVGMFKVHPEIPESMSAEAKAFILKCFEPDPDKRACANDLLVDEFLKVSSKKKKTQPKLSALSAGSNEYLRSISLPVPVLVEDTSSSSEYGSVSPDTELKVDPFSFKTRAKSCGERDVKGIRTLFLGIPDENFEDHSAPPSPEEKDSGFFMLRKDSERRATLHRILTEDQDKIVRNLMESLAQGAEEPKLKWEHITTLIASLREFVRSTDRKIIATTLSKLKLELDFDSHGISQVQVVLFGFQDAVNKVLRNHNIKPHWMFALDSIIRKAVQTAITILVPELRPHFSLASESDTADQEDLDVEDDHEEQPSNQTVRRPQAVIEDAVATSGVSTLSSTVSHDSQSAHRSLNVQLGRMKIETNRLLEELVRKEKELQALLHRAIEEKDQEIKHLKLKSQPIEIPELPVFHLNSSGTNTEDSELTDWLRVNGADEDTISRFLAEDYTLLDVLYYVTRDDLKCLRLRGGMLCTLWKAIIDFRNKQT

[3] = target: Cyclin-dependent kinase 2 (Homo sapiens, UniProt P24941); assay: Inhibition of CDK2 (unknown origin)
[4] = target: Proto-oncogene tyrosine-protein kinase receptor Ret (Homo sapiens, UniProt P07949); assay: Inhibition of recombinant human GST-tagged RET cytoplasmic domain expressed in baculovirus expression system
Sequence of Proto-oncogene tyrosine-protein kinase receptor Ret (P07949 whole entry, the tested form may be a part): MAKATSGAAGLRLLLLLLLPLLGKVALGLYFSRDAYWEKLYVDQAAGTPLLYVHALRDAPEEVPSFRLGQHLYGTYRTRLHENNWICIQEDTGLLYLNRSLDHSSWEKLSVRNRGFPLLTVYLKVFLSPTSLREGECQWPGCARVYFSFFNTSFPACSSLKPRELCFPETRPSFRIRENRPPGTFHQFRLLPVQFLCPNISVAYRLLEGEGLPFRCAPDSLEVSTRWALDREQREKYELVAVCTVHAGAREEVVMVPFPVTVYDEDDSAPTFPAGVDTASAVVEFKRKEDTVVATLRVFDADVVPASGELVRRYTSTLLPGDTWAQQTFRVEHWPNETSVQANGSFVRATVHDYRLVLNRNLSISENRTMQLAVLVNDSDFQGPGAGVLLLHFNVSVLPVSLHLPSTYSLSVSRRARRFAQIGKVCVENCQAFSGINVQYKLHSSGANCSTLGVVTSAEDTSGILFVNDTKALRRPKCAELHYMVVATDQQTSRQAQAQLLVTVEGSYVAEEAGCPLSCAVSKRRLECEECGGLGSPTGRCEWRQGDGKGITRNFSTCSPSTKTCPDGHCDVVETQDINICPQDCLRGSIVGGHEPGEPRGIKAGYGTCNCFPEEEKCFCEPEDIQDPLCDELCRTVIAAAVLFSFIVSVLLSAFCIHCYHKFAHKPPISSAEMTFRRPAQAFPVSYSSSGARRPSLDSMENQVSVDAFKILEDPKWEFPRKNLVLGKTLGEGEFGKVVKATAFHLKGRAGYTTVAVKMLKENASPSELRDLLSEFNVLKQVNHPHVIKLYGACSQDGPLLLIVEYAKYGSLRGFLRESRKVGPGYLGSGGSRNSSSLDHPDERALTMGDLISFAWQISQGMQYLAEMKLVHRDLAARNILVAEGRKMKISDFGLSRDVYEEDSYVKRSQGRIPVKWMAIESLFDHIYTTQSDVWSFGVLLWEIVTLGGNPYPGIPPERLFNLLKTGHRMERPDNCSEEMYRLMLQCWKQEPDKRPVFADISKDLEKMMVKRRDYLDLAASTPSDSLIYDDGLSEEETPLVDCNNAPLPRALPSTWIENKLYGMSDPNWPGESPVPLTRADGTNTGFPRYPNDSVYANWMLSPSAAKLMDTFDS

[5] = target: T2, Tyrosine-protein kinase ITK/TSK (Homo sapiens, UniProt Q08881); assay: Inhibition of recombinant full length human GST-tagged ITK expressed in baculovirus expression system
T2 sequence (Q08881 whole entry): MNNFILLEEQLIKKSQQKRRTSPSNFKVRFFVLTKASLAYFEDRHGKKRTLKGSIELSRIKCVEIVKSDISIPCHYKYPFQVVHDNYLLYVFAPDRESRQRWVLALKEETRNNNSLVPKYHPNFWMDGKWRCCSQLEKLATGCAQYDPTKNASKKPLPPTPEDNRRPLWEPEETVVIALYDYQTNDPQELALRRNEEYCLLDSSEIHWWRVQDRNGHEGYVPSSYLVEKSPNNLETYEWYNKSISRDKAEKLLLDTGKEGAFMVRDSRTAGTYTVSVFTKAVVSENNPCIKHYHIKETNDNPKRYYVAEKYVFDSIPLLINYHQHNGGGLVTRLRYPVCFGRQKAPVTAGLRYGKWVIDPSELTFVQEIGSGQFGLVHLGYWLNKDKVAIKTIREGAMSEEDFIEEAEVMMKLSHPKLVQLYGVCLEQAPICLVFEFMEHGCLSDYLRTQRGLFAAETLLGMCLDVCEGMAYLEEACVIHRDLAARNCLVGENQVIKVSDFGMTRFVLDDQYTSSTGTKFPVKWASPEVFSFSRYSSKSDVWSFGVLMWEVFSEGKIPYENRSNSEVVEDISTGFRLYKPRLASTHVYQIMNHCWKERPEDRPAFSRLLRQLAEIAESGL

[6] = target: 5'-AMP-activated protein kinase catalytic subunit alpha-1 (Homo sapiens, UniProt Q13131); assay: Inhibition of PRKAA1 (unknown origin)
Sequence of 5'-AMP-activated protein kinase catalytic subunit alpha-1 (Q13131 whole entry): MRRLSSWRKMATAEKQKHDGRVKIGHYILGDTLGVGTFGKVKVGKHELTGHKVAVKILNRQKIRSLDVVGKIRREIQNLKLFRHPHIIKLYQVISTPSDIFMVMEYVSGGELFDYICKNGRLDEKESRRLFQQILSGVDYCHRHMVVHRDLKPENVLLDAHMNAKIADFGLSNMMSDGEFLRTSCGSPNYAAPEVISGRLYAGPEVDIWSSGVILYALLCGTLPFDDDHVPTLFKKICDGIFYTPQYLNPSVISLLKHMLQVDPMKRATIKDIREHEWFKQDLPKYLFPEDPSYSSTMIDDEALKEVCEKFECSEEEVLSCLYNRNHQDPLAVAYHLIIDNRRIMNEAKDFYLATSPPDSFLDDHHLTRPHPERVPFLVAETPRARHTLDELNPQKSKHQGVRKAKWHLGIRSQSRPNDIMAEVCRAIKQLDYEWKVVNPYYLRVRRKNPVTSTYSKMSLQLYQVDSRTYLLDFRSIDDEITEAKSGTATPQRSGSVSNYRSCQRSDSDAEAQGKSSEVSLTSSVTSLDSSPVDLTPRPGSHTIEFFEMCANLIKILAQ

CYP3A4 = CYP3A4 (Homo sapiens, UniProt P08684); assay: Inhibition of CYP3A4 (unknown origin) at 10 uM relative to control; format: ADME
Sequence of CYP3A4 (P08684 whole entry, the tested form may be a part): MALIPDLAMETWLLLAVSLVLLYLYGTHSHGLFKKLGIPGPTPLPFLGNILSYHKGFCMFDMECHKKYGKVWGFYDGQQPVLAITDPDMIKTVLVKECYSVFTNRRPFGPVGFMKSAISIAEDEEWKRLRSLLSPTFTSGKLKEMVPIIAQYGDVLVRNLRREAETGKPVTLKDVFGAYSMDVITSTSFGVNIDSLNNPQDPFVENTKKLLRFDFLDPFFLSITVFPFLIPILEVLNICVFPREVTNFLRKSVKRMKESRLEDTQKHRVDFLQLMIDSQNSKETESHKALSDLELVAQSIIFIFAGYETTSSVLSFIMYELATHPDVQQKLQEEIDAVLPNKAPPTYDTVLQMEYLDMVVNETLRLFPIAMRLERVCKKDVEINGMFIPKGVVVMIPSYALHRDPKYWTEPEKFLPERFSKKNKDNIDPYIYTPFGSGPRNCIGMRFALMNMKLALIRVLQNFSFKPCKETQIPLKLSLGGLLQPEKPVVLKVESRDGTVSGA

[7] = target: Epidermal growth factor receptor (Homo sapiens, UniProt P00533); assay: Inhibition of recombinant human GST-tagged EGFR cytoplasmic domain (668 to 1210 residues) expressed in baculovirus expression system
Sequence of Epidermal growth factor receptor (P00533 whole entry, the tested form may be a part): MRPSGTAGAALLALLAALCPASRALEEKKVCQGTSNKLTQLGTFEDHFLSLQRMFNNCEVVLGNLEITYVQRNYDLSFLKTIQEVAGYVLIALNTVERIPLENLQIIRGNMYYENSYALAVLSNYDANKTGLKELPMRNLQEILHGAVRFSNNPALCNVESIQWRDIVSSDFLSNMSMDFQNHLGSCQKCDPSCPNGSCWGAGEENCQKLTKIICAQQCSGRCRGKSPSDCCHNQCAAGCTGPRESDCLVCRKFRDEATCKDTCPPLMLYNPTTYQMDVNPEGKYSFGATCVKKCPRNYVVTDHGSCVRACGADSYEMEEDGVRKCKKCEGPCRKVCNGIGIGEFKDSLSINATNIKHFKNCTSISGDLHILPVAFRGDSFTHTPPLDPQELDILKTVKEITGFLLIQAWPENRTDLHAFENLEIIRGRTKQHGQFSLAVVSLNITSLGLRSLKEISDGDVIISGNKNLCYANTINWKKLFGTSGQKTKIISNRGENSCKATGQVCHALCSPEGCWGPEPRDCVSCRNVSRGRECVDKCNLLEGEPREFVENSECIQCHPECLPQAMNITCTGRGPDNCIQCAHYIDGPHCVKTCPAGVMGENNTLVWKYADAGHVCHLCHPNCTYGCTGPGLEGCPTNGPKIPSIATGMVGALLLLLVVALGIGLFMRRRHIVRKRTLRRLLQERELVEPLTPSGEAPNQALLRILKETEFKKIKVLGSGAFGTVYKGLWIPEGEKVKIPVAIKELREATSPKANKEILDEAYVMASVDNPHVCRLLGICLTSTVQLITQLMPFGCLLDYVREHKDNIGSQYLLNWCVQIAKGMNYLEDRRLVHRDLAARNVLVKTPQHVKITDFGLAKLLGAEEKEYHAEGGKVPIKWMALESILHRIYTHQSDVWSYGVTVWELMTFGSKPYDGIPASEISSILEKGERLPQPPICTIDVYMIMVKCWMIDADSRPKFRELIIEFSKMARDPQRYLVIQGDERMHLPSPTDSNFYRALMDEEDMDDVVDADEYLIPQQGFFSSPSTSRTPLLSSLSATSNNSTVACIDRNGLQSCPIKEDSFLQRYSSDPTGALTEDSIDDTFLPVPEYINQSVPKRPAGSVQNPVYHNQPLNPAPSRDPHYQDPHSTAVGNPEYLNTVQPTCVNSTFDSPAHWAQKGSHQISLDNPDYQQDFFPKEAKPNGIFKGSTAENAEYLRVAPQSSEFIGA

## COCCn1cc(NC(=O)c2csc(-c3nncn3C(C)C)n2)cn1
[1]
  CLint scaled: 0.528 L/h/kg
[2]
  pIC50: 7.22
[3]
  pIC50: 6.00
[4]
  pIC50: 6.21
[5]
  pIC50: < 4.70
[6]
  pIC50: 6.10
CYP3A4
  inhibition at 10 µM: 30%
[7]
  pIC50: < 4.70
